Drawing on US10538555B2, “Macrocyclic inhibitors of the PD-1/PD-L1 and CD80(B7-1)/PD-L1 protein/protein interactions” (BRISTOL-MYERS SQUIBB COMPANY, priority 2014, dated 2020), this text covers IC50 for eleven molecules.

The target in this experiment is T1, Human PD-L1/PD-1 (Homo sapiens, UniProt Q9NZQ7).
T1 construct: TVMV protease cleavage site (C); made in house; host or cells: HEK293T cells
Briefly: HTRF Human PD-L1/PD-1 binding assay (PD-1-Ig/PD-L1-His). Particulars: PD-L1-His 10 nM, PD-1-Ig 20 nM. The gist of the method:
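Competition of macrocyclic peptides for PD-1/PD-L1 binding measured by HTRF in dPBS containing 0.1% BSA and 0.05% Tween-20. Compound and PD-L1-His (10 nM final) incubated 15 min before PD-1-Ig (20 nM final) and a further 15 min.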

Setting [1] is: class symbol, read-out: HTRF Human PD-L1/PD-1 Binding Assay IC50 Range.

Read-outs that look alike come from different tables or passages of the source. *1 amine or outer side, *2 acyl side, *3 side chain or, on linkers, in order; H or OH if unused. Where a SMILES comes first, the peptide text is derived from it. Bridges are numbered along the chain shown (N, C = ends). [ ]: non-standard residue; d: D form. ξ: configuration not given here. Trp(1-CH2COOH) = N[C@@H](Cc1cn(CC(=O)O)c2ccccc12)C(=O)O; Phe(3,4,5-F3) = N[C@@H](Cc1cc(F)c(F)c(F)c1)C(=O)O; Phe(4-F) = N[C@@H](Cc1ccc(F)cc1)C(=O)O; d(cisHyp) = O=C(O)[C@H]1C[C@@H](O)CN1; Bta = N[C@@H](Cc1csc2ccccc12)C(=O)O; NMeY = CN[C@@H](Cc1ccc(O)cc1)C(=O)O; Hyp = O=C(O)[C@@H]1C[C@@H](O)CN1; NMeF = CN[C@@H](Cc1ccccc1)C(=O)O; X1 = O=C([C@H]1COCCN1[*:1])[*:2]; dHyp = O=C(O)[C@H]1C[C@H](O)CN1; NMeNle = CCCC[C@H](NC)C(=O)O; NMeV = CN[C@H](C(=O)O)C(C)C; dPip = O=C(O)[C@H]1CCCCN1; hSer = N[C@@H](CCO)C(=O)O; NMeA = CN[C@@H](C)C(=O)O; Orn = NCCC[C@H](N)C(=O)O; dNMeA = CN[C@H](C)C(=O)O; dThz = O=C(O)[C@H]1CSCN1; Dab = NCC[C@H](N)C(=O)O; Dap = NC[C@H](N)C(=O)O; ξC = NC(CS)C(=O)O; Sar = CNCC(=O)O

T1 sequence (Q9NZQ7 with tags, fused parts or gaps): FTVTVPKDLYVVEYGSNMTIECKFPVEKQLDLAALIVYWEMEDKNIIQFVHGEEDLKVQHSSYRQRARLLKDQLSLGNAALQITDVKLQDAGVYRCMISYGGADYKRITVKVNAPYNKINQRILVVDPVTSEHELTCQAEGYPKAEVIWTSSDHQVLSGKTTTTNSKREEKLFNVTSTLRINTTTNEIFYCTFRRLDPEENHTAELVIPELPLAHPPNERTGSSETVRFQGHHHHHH

For `CCCC[C@H]1C(=O)N(C)[C@@H](C)C(=O)N[C@@H](CCCNC(=N)N)C(=O)NC(C(=O)N[C@@H](CO)C(N)=O)CSCC(=O)N[C@@H](Cc2ccc(O)cc2)C(=O)N(C)[C@@H](C)C(=O)N[C@@H](CC(N)=O)C(=O)N2CCC[C@H]2C(=O)N[C@@H](CO)C(=O)N[C@H](CC(C)C)C(=O)N2CCC[C@H]2C(=O)N[C@@H](Cc2c[nH]c3ccccc23)C(=O)N[C@@H](CO)C(=O)N[C@@H](Cc2c[nH]c3ccccc23)C(=O)N1C` (stereo partly drawn) [Example 9121] ({CH2CO}-Y[NMeA]NPS[dL]PWSW[NMeNle][NMeA]R[ξC]S-NH2; thioether N-14), the IC50 under setting [1] lay in the range of 0.01 to 0.0999 µM.
Take `CC(C)[C@@H]1NC(=O)[C@H](CC(N)=O)NC(=O)[C@@H](C)N(C)C(=O)[C@H](C)N(C)C(=O)[C@H](Cc2ccccc2)N(C)C(=O)[C@H](Cc2cc(F)c(F)c(F)c2)NC(=O)CSC[C@@H](C(=O)NCC(N)=O)NC(=O)[C@H](CCCN)NC(=O)[C@H](Cc2ccc(O)cc2)NC(=O)[C@H](Cc2c[nH]c3ccccc23)NC(=O)[C@@H](C)N(C)C(=O)[C@H](Cc2ccc(O)cc2)NC(=O)[C@H](Cc2ccccc2)N(C)C1=O` [Example 9195] ({CH2CO}-[Phe(3,4,5-F3)][NMeF][NMeA][dNMeA]NV[NMeF]Y[dNMeA]WY[Orn]CG-NH2; thioether N-13): the IC50 under setting [1] lay within 0.001 to 0.0099 µM.
With `CCCC[C@H]1C(=O)N2CCC[C@@H]2C(=O)N[C@@H](CC(=O)O)C(=O)N[C@@H](C(C)C)C(=O)N(C)[C@@H](C(C)C)C(=O)N[C@@H](Cc2ccc(O)cc2)C(=O)N2CCCC[C@@H]2C(=O)N[C@@H](Cc2c[nH]c3ccccc23)C(=O)N[C@@H](Cc2ccc(O)cc2)C(=O)N[C@@H](CCCN)C(=O)N[C@H](C(=O)NCC(N)=O)CSCC(=O)N[C@@H](Cc2ccc(F)cc2)C(=O)N(C)[C@@H](Cc2ccccc2)C(=O)N1C` [Example 9244] ({CH2CO}-[Phe(4-F)][NMeF][NMeNle][dP]DV[NMeV]Y[dPip]WY[Orn]CG-NH2; thioether N-13), under setting [1], the IC50 is 1 to 10 µM.
In the case of `CCCC[C@H]1C(=O)N2C[C@H](O)C[C@@H]2C(=O)N[C@@H](CC(=O)O)C(=O)N[C@@H](C(C)C)C(=O)N(C)[C@@H](Cc2ccccc2)C(=O)N[C@@H](CCC(=O)O)C(=O)N2C[C@@H](O)C[C@@H]2C(=O)N[C@@H](Cc2c[nH]c3ccccc23)C(=O)N[C@@H](Cc2ccc(O)cc2)C(=O)N[C@@H](CC(C)C)C(=O)N[C@H](C(=O)NCC(N)=O)CSCC(=O)N[C@@H](Cc2cc(F)c(F)c(F)c2)C(=O)N(C)[C@@H](Cc2ccccc2)C(=O)N1C` [Example 9373] ({CH2CO}-[Phe(3,4,5-F3)][NMeF][NMeNle][d(cisHyp)]DV[NMeF]E[dHyp]WYLCG-NH2; thioether N-13), the IC50 under setting [1] was in the range of 0.01 to 0.0999 µM.
In the case of `CCCC[C@H]1C(=O)N(C)[C@@H](CCCC)C(=O)N[C@@H](CC(=O)O)C(=O)N[C@H](C(N)=O)CSCC(=O)N[C@@H](Cc2ccc(O)cc2)C(=O)N(C)[C@@H](C)C(=O)N[C@@H](CC(N)=O)C(=O)N2CCC[C@H]2C(=O)N[C@@H](CN)C(=O)N[C@@H](CC(C)C)C(=O)N2C[C@H](O)C[C@H]2C(=O)N[C@@H](Cc2c[nH]c3ccccc23)C(=O)N[C@@H](CO)C(=O)N[C@@H](Cc2cn(CC(=O)O)c3ccccc23)C(=O)N1C` [Example 6334] ({CH2CO}-Y[NMeA]NP[Dap]L[Hyp]WS[Trp(1-CH2COOH)][NMeNle][NMeNle]DC-NH2; thioether N-14), the IC50 under setting [1] is 0.001 to 0.0099 µM.
As to `CCCC[C@H]1C(=O)N2CCC[C@@H]2C(=O)N[C@@H](CC(=O)O)C(=O)N[C@@H](C(C)C)C(=O)N(C)[C@@H](Cc2ccccc2)C(=O)N[C@@H](CCN)C(=O)N2CCOC[C@@H]2C(=O)N[C@@H](Cc2c[nH]c3ccccc23)C(=O)N[C@@H](Cc2ccc(O)cc2)C(=O)N[C@@H](CC(C)C)C(=O)N[C@H](C(=O)NCC(N)=O)CSCC(=O)N[C@@H](Cc2cc(F)c(F)c(F)c2)C(=O)N(C)[C@@H](Cc2ccc(O)cc2)C(=O)N1C` [Example 10622] ({CH2CO}-[Phe(3,4,5-F3)][NMeY][NMeNle][dP]DV[NMeF][Dab][X1]WYLCG-NH2; thioether N-13), under setting [1], the IC50 lay within 0.01 to 0.0999 µM.
The same measure, in the same setting: the result for `CCCC[C@H]1C(=O)N(C)[C@@H](CCCC)C(=O)N[C@@H](CCCNC(=N)N)C(=O)NC(C(=O)NCC(N)=O)CSCC(=O)N[C@@H](Cc2ccc(O)cc2)C(=O)N(C)[C@@H](C)C(=O)N[C@@H](CC(N)=O)C(=O)N2CCC[C@H]2C(=O)N[C@@H](Cc2cnc[nH]2)C(=O)N[C@@H](CC(C)C)C(=O)N2CCC[C@H]2C(=O)N[C@@H](Cc2c[nH]c3ccccc23)C(=O)N[C@@H](CO)C(=O)N[C@@H](Cc2csc3ccccc23)C(=O)N1C` (some centres unmarked) [Example 10045] ({CH2CO}-Y[NMeA]NPHLPWS[Bta][NMeNle][NMeNle]R[ξC]G-NH2; thioether N-14) reads 0.01 to 0.0999 µM.
In the case of `CCCC[C@H]1C(=O)N2CCC[C@@H]2C(=O)N[C@@H](CC(N)=O)C(=O)N[C@@H](C(C)C)C(=O)N(C)[C@@H](Cc2ccccc2)C(=O)N[C@@H](Cc2ccc(O)cc2)C(=O)N2CSC[C@@H]2C(=O)N[C@@H](Cc2c[nH]c3ccccc23)C(=O)N[C@@H](Cc2ccc(O)cc2)C(=O)N[C@@H](CC(C)C)C(=O)N[C@H](C(=O)NCC(N)=O)CSCC(=O)N[C@@H](Cc2ccccc2)C(=O)N(C)[C@@H](Cc2ccccc2)C(=O)N1C` [Example 10069] ({CH2CO}-F[NMeF][NMeNle][dP]NV[NMeF]Y[dThz]WYLCG-NH2; thioether N-13), where the note is “read-out: HTRF Human PD-L1/PD-1 Binding Assay IC50”, the IC50 stood at 0.0126 µM.
As to `CCCC[C@H]1C(=O)N2C[C@H](O)C[C@@H]2C(=O)N[C@@H](CC(=O)O)C(=O)N[C@@H](C(C)C)C(=O)N(C)[C@@H](Cc2ccccc2)C(=O)N[C@@H](CCC(=O)O)C(=O)N2CCC[C@@H]2C(=O)N[C@@H](Cc2c[nH]c3ccccc23)C(=O)N[C@@H](Cc2ccc(O)cc2)C(=O)N[C@@H](CCOC)C(=O)N[C@H](C(=O)NCC(N)=O)CSCC(=O)N[C@@H](Cc2cc(F)c(F)c(F)c2)C(=O)N(C)[C@@H](Cc2ccccc2)C(=O)N1C` [Example 10193] ({CH2CO}-[Phe(3,4,5-F3)][NMeF][NMeNle][d(cisHyp)]DV[NMeF]E[dP]WY[hSer](Me)CG-NH2; thioether N-13), the IC50 under setting [1] fell in the range of 0.001 to 0.0099 µM.
In the case of `CCCC[C@H]1C(=O)N2C[C@H](O)C[C@@H]2C(=O)N[C@@H](CC(=O)O)C(=O)N[C@@H](C(C)C)C(=O)N(C)[C@@H](Cc2ccccc2)C(=O)N[C@@H](CCC(=O)O)C(=O)N2C[C@H](O)C[C@@H]2C(=O)N[C@@H](Cc2c[nH]c3ccccc23)C(=O)N[C@@H](Cc2ccc(O)cc2)C(=O)N[C@@H](CCC(=O)O)C(=O)N[C@H](C(=O)NCC(N)=O)CSCC(=O)N[C@@H](Cc2cc(F)c(F)c(F)c2)C(=O)N(C)[C@@H](Cc2ccc(O)cc2)C(=O)N1C` [Example 10637] ({CH2CO}-[Phe(3,4,5-F3)][NMeY][NMeNle][d(cisHyp)]DV[NMeF]E[d(cisHyp)]WYECG-NH2; thioether N-13), under setting [1], the IC50 fell in the range of 0.01 to 0.0999 µM.
As to `CCCC[C@H]1C(=O)N(C)CC(=O)N[C@@H](CC(=O)O)C(=O)N[C@@H](C(C)C)C(=O)N(C)[C@@H](Cc2ccccc2)C(=O)N[C@@H](Cc2ccc(O)cc2)C(=O)N(C)CC(=O)N[C@@H](Cc2c[nH]c3ccccc23)C(=O)N[C@@H](Cc2ccc(O)cc2)C(=O)N[C@@H](CC(C)C)C(=O)N[C@H](C(=O)NCC(N)=O)CSCC(=O)N[C@@H](Cc2csc3ccccc23)C(=O)N(C)[C@@H](Cc2ccccc2)C(=O)N1C` [Example 3245] ({CH2CO}-[Bta][NMeF][NMeNle][Sar]DV[NMeF]Y[Sar]WYLCG-NH2; thioether N-13), the IC50 under setting [1] was in the range of 1 to 10 µM.
